Results: ChEMBL document CHEMBL1130726, “Novel cytokine release inhibitors. Part III: Truncated analogs of tripterine” (Bioorg Med Chem Lett, 1998)
Blank lines part the entries; values can stand above or below the molecule they belong to.

What was measured:
Type in all cases: functional
Homo sapiens [1] = species: Homo sapiens; experiment: Inhibitory activity against LPS-stimulated IL-1 beta release from human monocytes
Homo sapiens [2] = species: Homo sapiens; experiment: Compound was tested for inhibitory effect on LPS-stimulated TNF-alpha release from human monocytes
Homo sapiens [3] = species: Homo sapiens; experiment: Compound was tested for inhibitory effect on LPS-stimulated PGE-2 release from human monocytes
Homo sapiens [4] = species: Homo sapiens; experiment: Compound was tested for inhibitory effect on LPS-stimulated IL-8 release from human monocytes
Homo sapiens [5] = species: Homo sapiens; experiment: Compound was tested for inhibitory effect on LPS-stimulated IL-1 alpha release from human monocytes
Homo sapiens [6] = species: Homo sapiens; experiment: Compound was tested for inhibitory effect on LPS-stimulated IL-6 release from human monocytes
Homo sapiens [7] = species: Homo sapiens; experiment: Compound was tested for inhibitory activity against LPS-stimulated IL-1 beta release from human monocytes; 80-700
Homo sapiens [8] = species: Homo sapiens; experiment: Compound was tested for inhibitory effect on LPS-stimulated IL-1 beta release from human monocytes
Homo sapiens [9] = species: Homo sapiens; experiment: Compound was tested for inhibitory activity against LPS-stimulated IL-1 beta release from human monocytes at concentration 3000 nM

Structure (SMILES): Cc1c(O)c(O)cc2c1CC=C1C(C)(C)C(=O)CCC12C (stereo not drawn)
IC50 (Homo sapiens [1]): 300 nM

Structure (SMILES): COc1cc2c(c(C)c1OC)C=CC1=C(C)C(=O)CCC12C (stereo not drawn)
IC50 (Homo sapiens [2]): 190 nM | IC50 (Homo sapiens [3]): 450 nM | IC50 (Homo sapiens [4]): 480 nM | IC50 (Homo sapiens [5]): 130 nM | IC50 (Homo sapiens [6]): 340 nM

Structure (SMILES): CC(=O)Oc1cc2c(cc1OC(C)=O)[C@]1(C)CC[C@H]3C(C)(C)C(=O)CC[C@]3(C)C1=CC2
IC50 (Homo sapiens [1]): 140 nM

Structure (SMILES): COc1cc2c(c(C)c1OC)CCC(=O)C2C (stereo not drawn)
IC50 (Homo sapiens [2]): 460 nM | IC50 (Homo sapiens [3]): 520 nM | IC50 (Homo sapiens [4]): 1000 nM | IC50 (Homo sapiens [5]): 240 nM | IC50 (Homo sapiens [6]): 430 nM

Structure (SMILES): CC1=C(O)C(=O)C=C2C1=CC=C1C(C)(C)C(=O)CCC21C (stereo not drawn)
IC50 (Homo sapiens [7]): 80 nM

Structure (SMILES): CC(=O)Oc1cc2c(c(C)c1OC(C)=O)CC(C(C)=O)=C1[C@@]2(C)CC[C@H]2OC(=O)C[C@]12C
IC50 (Homo sapiens [1]): 900 nM

Structure (SMILES): CC(=O)Oc1cc2c(c(C)c1OC(C)=O)CCC1=C(C)C(=O)CCC12C (stereo not drawn)
IC50 (Homo sapiens [2]): 190 nM | IC50 (Homo sapiens [3]): 200 nM | IC50 (Homo sapiens [8]): 80 nM | IC50 (Homo sapiens [1]): 2400 nM | IC50 (Homo sapiens [4]): 300 nM | IC50 (Homo sapiens [5]): 100 nM | IC50 (Homo sapiens [6]): 250 nM

Structure (SMILES): CC(=O)Oc1cc2c(c(C)c1OC(C)=O)C=CC1=C(C)C(=O)CCC12C (stereo not drawn)
IC50 (Homo sapiens [2]): 500 nM | IC50 (Homo sapiens [3]): 600 nM | IC50 (Homo sapiens [8]): 180 nM | IC50 (Homo sapiens [1]): 700 nM | IC50 (Homo sapiens [4]): 930 nM | IC50 (Homo sapiens [5]): 220 nM | IC50 (Homo sapiens [6]): 400 nM

Structure (SMILES): CCOC(=O)C[C@@]1(C)C(=O)CC[C@@]2(C)c3cc(OC(C)=O)c(OC(C)=O)cc3CC[C@H]12
IC50 (Homo sapiens [1]): 2200 nM

Structure (SMILES): CC(=O)Oc1cc2c(cc1OC(C)=O)[C@]1(C)CCC(=O)[C@](C)(Cc3ccc(C(=O)O)cc3)[C@H]1CC2
inhibition at 3 µM (Homo sapiens [9]): 16%

Structure (SMILES): CC1=C(O)C(=O)C=C2C1=CC=C1[C@@]2(C)CC[C@@]2(C)[C@@H]3C[C@](C)(C(=O)O)CC[C@]3(C)CC[C@]12C [CELASTROL]
IC50 (Homo sapiens [2]): 210 nM | IC50 (Homo sapiens [3]): 110 nM | IC50 (Homo sapiens [8]): 40 nM | IC50 (Homo sapiens [1]): 40 nM | IC50 (Homo sapiens [4]): 210 nM | IC50 (Homo sapiens [5]): 40 nM | IC50 (Homo sapiens [6]): 80 nM

Other lines, results leading:

IC50 (Homo sapiens [1]): 80 nM
Structure (SMILES): CC(=O)Oc1cc2c(c(C)c1OC(C)=O)CC=C1[C@@]3(C)CCC(=O)C(C)=C3CC[C@]12C

IC50 (Homo sapiens [1]): 700 nM
Structure (SMILES): COc1cc2c(c(C)c1O)CC=C1C(C)(C)C(=O)CCC12C (stereo not drawn)

IC50 (Homo sapiens [1]): 200 nM
Structure (SMILES): CC(=O)Oc1cc2c(c(C)c1OC(C)=O)CC=C1C(C)(C)C(=O)CC[C@]12C

IC50 (Homo sapiens [1]): 200 nM
Structure (SMILES): CC(=O)Oc1cc2c(c(C)c1OC(C)=O)CC=C1[C@@]2(C)CC[C@H]2OC(=O)C[C@]12C

IC50 (Homo sapiens [1]): 100 nM
Structure (SMILES): CC(=O)Oc1cc2c(c(C)c1OC(C)=O)CC=C1C(C)(C)[C@H](OC(C)=O)CC[C@]12C

IC50 (Homo sapiens [1]): 200 nM
Structure (SMILES): CC(=O)Oc1cc2c(c(C)c1OC(C)=O)CC=C1C(C)(C)C(=O)CCC12C (stereo not drawn)
